Results reported in publication PMC4448987, “A neuroligin-1-derived peptide stimulates phosphorylation of the NMDA receptor NR1 subunit and rescues MK-801-induced decrease in long-term potentiation and memory impairment” (Pharmacology Research & Perspectives, 2015).
Counter-ions that a name gives are not always drawn.

Assays:
[1] = system: hippocampal slices, CA3-CA1 synapse (fEPSP slope); experiment: LTP in acute hippocampal slices from mice injected s.c.; format: in vivo, C57BL/6N mice; details: mice injected with MK-801 0.1 mg/kg s.c. alone, 1 h before sacrifice; slope 25-30 min after HFS vs before; mean ± SEM, n = 6
Procedure: Juvenile C57BL/6N mice of both sexes (postnatal day 16–24; Taconic, Ejby, Denmark) were injected subcutaneously (s.c.) with 10 mg/kg of the neurolide-1 peptide solution (10 mg/mL) and again 23 h later with 10 mg/kg of the neurolide-1 peptide solution (10 mg/mL) and 0.1 mg/kg MK-801 solution (0.025 mg/mL). Mice receiving the injection with the MK-801 solution only or untreated mice served as control groups. The young mice were rapidly and humanely euthanized with a minimum of distress by decapitation at a time point corresponding to 24 h after first injection. Preceding anesthetic was omitted to preserve the tissue free of drug residues and brain slice functions as unaltered as possible when performing the physiological measurements. After decapitation, the brain was removed. […]
Measurements were made in oxygenated aCSF at room temperature (1.1 mL/min). […] The field potential in the stratum radiatum of the CA1 area of the hippocampus was recorded with an extracellular glass microelectrode (4–6 MΩ, filled with aCSF), positioned at least 500 μm away from the stimulation electrode. […]

male Wistar rats [2] = experiment: Spatial memory in the Morris water maze; format: in vivo; details: rat, n = 12
Procedure: The Morris water-maze test (Morris [1984]) was performed as previously described (Kraev et al. [2011]) with slight modifications (see Data S1). Male Wistar rats (Charles River), weighing 150–200 g on the day of arrival were used. To investigate for potential effects on memory consolidation, neurolide-1 was injected immediately after the training sessions on day 1 and 2 (n = 12 in each group). To test for potential effects on memory acquisition neurolide-1 was injected 2 h before start of training on training day 1 and 2 (n = 12 in each group). Finally, to test for potential effects on MK-801-induced learning deficiencies neurolide-1 was injected 2 h before start of training on day 2 and 3 in animals, which had received an injection with MK-801 30 min earlier (n = 6–9 in each group). In a slightly modified version of the MK-801 experiments a group of animals received a neurolide-1 injection immediately after the training sessions on day 1, and then a neurolide-1 injection 2 h before start of training on day 2, preceded by an MK-801 injection 30 min earlier (n = 12 in each group). Terminally, rats were rapidly and humanely rendered unconscious by concussive stunning and euthanized by cervical dislocation.
The Morris water maze test (Morris, 1984) was conducted in a 160 cm wide circular black tank placed in a dimly lit room and filled with 21°C water up to 20 cm from the top. The tank was surrounded by visual orientation marks, and a 10 cm wide escape platform was placed 1.5 cm below the water level for it to be unseen. A video camera was placed above the tank and connected to a computerized tracking system (Ethovision 3.1, Noldus IT, Wageningen, Holland). The tank was divided into four equal-size quadrants that also served as starting positions. The latency to locate the platform, time spent swimming, and swimming speed were scored within the defined zones (i.e., total area, quadrants, and a platform circle that was 60 cm in diameter with the center in the original platform location). Prior to training, the rats were handled 2 min daily for 5 days to minimize stress during the experiments.
Reference memory training consisted of three consecutive trials daily for 3 days. Each trial began with placing the animal in the water facing the wall of the pool. The starting position differed for each trial but was identical for all animals. In each trial, the animal was allowed 90 s to locate the platform. […] After each trial, the rats were allowed 20 s of orientation time on the platform and then removed from the pool for 20 s before the next trial was initiated. After the last trial each day, the animals were dried and returned to their home cages.
To test for effects on long-term memory, the animals were tested in a probe trial 24 h after the last reference memory training. In the probe trial, the platform was removed, and the animals began from a position in a quadrant adjacent to the original platform quadrant. The rats were allowed to swim for 60 s, after which the trial was stopped.

male Wistar rats [3] = experiment: Y maze test (spontaneous alternation); format: in vivo, rat; details: n = 6-12
Procedure: NMDA-mediated effects of Neurolide-1 on spatial working memory performance was assessed by recording spontaneous alternation behavior in a Y maze test performed as described previously (Wegener et al. [2011]), (See Data S1). Initially, adult male Wister rats (420–490 g, n = 6–12; Charles River) were injected s.c., three times at 28, 4, and 2 h before start of the Y maze test. One group received Neurolide-1, saline, and neurolide-1 in this order. Another group received saline, MK-801, and saline in this order. A third group received neurolide-1, MK-801, and neurolide-1 in this order. And control group received saline at all times. In a second setup we tested the effect of neurolide-1 in very young male Wistar rats (4-weeks old) which received a s.c., injection of neurolide-1 or saline 2 h prior to testing them in the Y-maze (n = 11–15). Terminally, rats were rapidly and humanely rendered unconscious by concussive stunning and euthanized by cervical dislocation.
The maze was made of gray polyvinyl chloride, with three identical arms (425 mm length × 225 mm height × 145 mm width) mounted symmetrically to an equilateral triangular center section. Each rat was placed at the end of one arm and allowed to explore the apparatus freely for 8 min. The sequence and number of all arm entries were recorded for each animal throughout the testing period. An alternation was defined as entries into all three arms on consecutive occasions. Therefore, the number of maximal alternation was the total number of arm entries minus 2, and the percentage of alternation was calculated as (actual alternations / maximal alternations) × 100. The total number of arms entered during the sessions was also determined (Yamaguchi et al, 2006). Data were eliminated in cases in which the number of total arm entries was less than 10 or when the rat escaped from the Y maze. After each trial, the Y maze was cleaned with 1% Virkon S (Pharmaxim, Helsingborg, Sweden).

[4] = MK-801 0.1 mg/kg, cited from earlier work
[5] = system: NMDA receptor NR1 subunit (serine 897); experiment: NMDA receptor phosphorylation assay (immunoblot, anti-phospho-Ser897-NR1) in cultured cortical neurons; format: cell-based, Wistar rat; details: cultured rat cortical neurons, 5 min stimulation, NL1 ectodomain up to 5.4 nmol/L, four independent experiments
Procedure: Cortical neurons were obtained from Wistar rat embryos at embryonic day 19, of both sexes, basically as previously described (Maar et al. [1997]) (see Data S1). Briefly, animals were rendered unconscious by concussive stunning and euthanized by cervical dislocation. Hereafter, the embryonic brains were collected and cortical neurons were dissociated and seeded in 60-mm tissue culture dishes coated with 1 μg/mL of poly-D-lysine (Sigma-Aldrich, St. Louis, MO) and grown for 8 days before treatment. Then, the cultures were stimulated with either the NL1 ectodomain (0.2, 0.6, 1.8, and 5.4 nmol/L) or neurolide-1 (0.1, 0.3, 1, and 2.7 μmol/L) for 5 min. The cells were lysed, and proteins were resolved by sodium dodecyl sulfate-polyacrylamide gel electrophoresis followed by immunoblotting using rabbit anti-Ser897-NR1 antibody (1:500; Millipore, Billerica, MA), mouse anti-β-tubulin antibody (1:50,000; Sigma-Aldrich), and IRDye secondary antibodies (Odyssey, Lincoln, NE). The bands were visualized using the Odyssey CLX Infrared Imaging System (Odyssey). Four independent experiments with stimulation by NL1 ectodomain and eight independent experiments with stimulation by neurolide-1 were performed.

Molecule | increase of fEPSP slope after high-frequency stimulation (LTP) [1] [%] | learning (escape latency) in the water maze (male Wistar rats [2]; MK-801 0.1 mg/kg s.c. on day 2, 2.5 h before first training session) | velocity in the water maze (male Wistar rats [2]; MK-801 0.1 mg/kg s.c. with or without neurolide-1 10 mg/kg s.c. (long-term regimen)) | alternation rate (male Wistar rats [3]; adult rats 420-490 g, MK-801 0.1 mg/kg s.c. 4 h before test) [%] | total number of arm entries, single treatment (male Wistar rats [3]; adult rats, peptide alone or MK-801 alone) | time after injection at which the increase in stereotypy peaked ([4]; returned to baseline 2 h later, ref Homayoun et al. [2004], Su et al. [2007]) [min] | motility ([4]; ref Verma and Moghaddam [1996], Homayoun et al. [2004]) | effect on NR1 phosphorylation at higher concentrations [5]
C[C@]12N[C@H](Cc3ccccc31)c1ccccc12 [MK-801, (5S,10R)-(+)-5-methyl-10,11-dihydro-5H-dibenzo[a,d]cyclohepten-5,10-imine maleate] | 27 ± 5 | strongly inhibited learning | Neither treatments affected velocity | ~50 | did not change | 40 | induce hypermotility | 
NL1: rat recombinant NL1 ectodomain obtained from R&D Systems (protein, UniProt Q62765 46-697, looked up, extracellular domain, rat recombinant NL1 ectodomain obtained from R&D Systems) extracellular domain: QKLDDVDPLVTTNFGKIRGIKKELNNEILGPVIQFLGVPYAAPPTGEHRFQPPEPPSPWSDIRNATQFAPVCPQNIIDGRLPEVMLPVWFTNNLDVVSSYVQDQSEDCLYLNIYVPTEDVKRISKECARKPGKKICRKGDIRDSGGPKPVMVYIHGGSYMEGTGNLYDGSVLASYGNVIVITVNYRLGVLGFLSTGDQAAKGNYGLLDLIQALRWTSENIGFFGGDPLRITVFGSGAGGSCVNLLTLSHYSEGNRWSNSTKGLFQRAIAQSGTALSSWAVSFQPAKYARILATKVGCNVSDTVELVECLQKKPYKELVDQDVQPARYHIAFGPVIDGDVIPDDPQILMEQGEFLNYDIMLGVNQGEGLKFVENIVDSDDGVSASDFDFAVSNFVDNLYGYPEGKDVLRETIKFMYTDWADRHNPETRRKTLLALFTDHQWVAPAVATADLHSNFGSPTYFYAFYHHCQTDQVPAWADAAHGDEVPYVLGIPMIGPTELFPCNFSKNDVMLSAVVMTYWTNFAKTGDPNQPVPQDTKFIHTKPNRFEEVAWTRYSQKDQLYLHIGLKPRVKEHYRANKVNLWLELVPHLHNLNDISQYTSTTTKVPSTDITLRPTRKNSTPVTSAFPTAKQDDPKQQPSPFSVDQRDYSTELS |  |  |  |  |  |  |  | did not have a statistically significant effect
